The target of one assay is Tyk2 kinase domain (DH1) (Homo sapiens (Human), UniProt P29597). The experiment in a line: Tyk2 Radioactive Kinase Assay. The assay is classed as biochemical. The conditions noted are these: for inhibition at 10 µM: read-out: Tyk2 JH1% Inhibition @ 10 μM. Summed up: (§1)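 Read-out is percent inhibition from a radioactive kinase reaction, measured with compound at 10 μM.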
The next assay has as its target JAK2 kinase domain (JH1) (Homo sapiens (Human), UniProt O60674). The experiment in a line: JAK2 Radioactive Kinase Assay. The class given is biochemical. The conditions noted are these: for inhibition at 10 µM: read-out: JAK2 JH1% Inhibition @ 10 μM. Summed up: as §1
The target of assay [1] is human TYK2 (JH2domain-pseudokinase) (Homo sapiens (Human), UniProt P29597). The experiment in a line: TYK2 JH2 Domain Binding Assay (KINOMEscan). Summed up:
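Competition binding of an NFkB-DBD fusion of human TYK2 JH2 (G556–D888), expressed in HEK293 and used as crude extract at <0.1 nM, against immobilized ligand beads; 1 h at room temperature in PBS/Tween/DTT/BSA buffer, 0.9% DMSO.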

Where two headings read alike, the source gives them in different places.

We go through 29 compounds from patent US10508120B2, “TYK2 inhibitors and uses thereof” (Nimbus Lakshmi, Inc., priority 2017, dated 2019).

Sequence of human TYK2 (JH2domain-pseudokinase) (P29597 556-888): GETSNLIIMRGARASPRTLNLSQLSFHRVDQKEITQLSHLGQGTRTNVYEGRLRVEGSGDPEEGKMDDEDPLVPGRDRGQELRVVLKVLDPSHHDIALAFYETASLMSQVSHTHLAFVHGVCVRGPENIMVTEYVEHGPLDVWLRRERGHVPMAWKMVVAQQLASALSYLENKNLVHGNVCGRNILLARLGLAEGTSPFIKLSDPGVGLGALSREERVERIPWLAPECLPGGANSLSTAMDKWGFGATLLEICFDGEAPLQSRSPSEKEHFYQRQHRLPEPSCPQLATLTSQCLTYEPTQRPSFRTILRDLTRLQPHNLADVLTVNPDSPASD
Sequence of Tyk2 kinase domain (DH1) (P29597 897-1176): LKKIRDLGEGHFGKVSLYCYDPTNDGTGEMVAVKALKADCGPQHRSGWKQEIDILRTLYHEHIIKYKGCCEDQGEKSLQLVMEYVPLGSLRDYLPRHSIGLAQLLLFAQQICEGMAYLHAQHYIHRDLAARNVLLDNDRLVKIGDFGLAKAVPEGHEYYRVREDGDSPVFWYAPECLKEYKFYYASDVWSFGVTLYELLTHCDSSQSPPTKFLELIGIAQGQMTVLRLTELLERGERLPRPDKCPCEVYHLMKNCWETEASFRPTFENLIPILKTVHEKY
Sequence of JAK2 kinase domain (JH1) (O60674 849-1124): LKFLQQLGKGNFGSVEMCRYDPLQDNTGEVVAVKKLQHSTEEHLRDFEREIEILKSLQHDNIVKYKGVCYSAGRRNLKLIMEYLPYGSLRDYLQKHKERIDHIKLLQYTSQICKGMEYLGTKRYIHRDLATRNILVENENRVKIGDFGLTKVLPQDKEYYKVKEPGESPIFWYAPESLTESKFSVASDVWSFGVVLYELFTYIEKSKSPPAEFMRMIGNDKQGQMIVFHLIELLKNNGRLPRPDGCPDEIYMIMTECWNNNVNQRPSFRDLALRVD

In the case of `CNc1cc(-c2nn([C@H]3CCOC3)c3ncccc23)nc2c(C(=O)N[C@@H]3C[C@@H]3F)cnn12` [I-518], the inhibition (as a rule, how much of the control response was suppressed) at 10 µM at Tyk2 kinase domain (DH1) (compound at 10 μM, ATP 10 μM) is < 50%; at JAK2 kinase domain (JH1) (compound at 10 μM, ATP 10 μM), < 50%. Further, the Kd (as a rule, the free concentration of one partner at which half of the binding sites on the other are occupied at equilibrium, for simple one-to-one binding) in assay [1] lay in the range of 0.2 to 1 nM.
For the compound `CNc1cc(Nc2cccn(-c3nc(C)c(C)s3)c2=O)nc2c(C(=O)NC3CC3)cnn12` [I-291], the inhibition at 10 µM is < 50% at Tyk2 kinase domain (DH1) (compound at 10 μM, ATP 10 μM) and < 50% at JAK2 kinase domain (JH1) (compound at 10 μM, ATP 10 μM). The compound also had a Kd in assay [1] of 0.2 to 1 nM.
With `CNc1cc(-c2cn(CCN3CCCCC3)c3ncccc23)nc2c(C(=O)N[C@@H]3CC[C@@H]3O)cnn12` [I-793], the inhibition at 10 µM on Tyk2 kinase domain (DH1) (compound at 10 μM, ATP 10 μM) is < 50%; on JAK2 kinase domain (JH1) (compound at 10 μM, ATP 10 μM) it was < 50%. Besides, in assay [1], the Kd is < 0.2 nM.
For `CNc1cc(Nc2cccnc2OC2CCCCC2)nc2c(C(=O)NC3CC3)cnn12` [I-221], the inhibition at 10 µM at Tyk2 kinase domain (DH1) (compound at 10 μM, ATP 10 μM) is < 50%; at JAK2 kinase domain (JH1) (compound at 10 μM, ATP 10 μM), < 50%. This compound yielded a Kd in assay [1] of 1 to 10 nM.
Take `CCn1cc(Cl)cc(Nc2cc(N)n3ncc(C(N)=O)c3n2)c1=O` [I-49]: the inhibition at 10 µM was < 50% at Tyk2 kinase domain (DH1) (compound at 10 μM, ATP 10 μM) and < 50% at JAK2 kinase domain (JH1) (compound at 10 μM, ATP 10 μM). In assay [1], the Kd is 0.2 to 1 nM.
On to `CNc1cc(Nc2cccnc2OC)nc2c(C(=O)NC(C)(C)C#N)cnn12` [I-476, N-(2-cyanopropan-2-yl)-5-((2-methoxypyridin-3-yl)amino)-7-(methylamino)-pyrazolo[1,5-a]pyrimidine-3-carboxamide], for which the inhibition at 10 µM is < 50% at Tyk2 kinase domain (DH1) (compound at 10 μM, ATP 10 μM) and < 50% on JAK2 kinase domain (JH1) (compound at 10 μM, ATP 10 μM). The Kd in assay [1] was < 0.2 nM.
Turning to `NC(=O)c1cnn2c(N)cc(Nc3cccc(N4CCOCC4)c3Cl)nc12` [I-22], the inhibition at 10 µM on Tyk2 kinase domain (DH1) (compound at 10 μM, ATP 10 μM) is < 50%; at JAK2 kinase domain (JH1) (compound at 10 μM, ATP 10 μM), 70 to 90%. For the same compound, in assay [1], the Kd was 0.2 to 1 nM.
`CNc1cc(Nc2cccn(-c3oc(C)nc3C)c2=O)nc2c(C(=O)NC3CC3)cnn12` [I-937]: the inhibition at 10 µM on Tyk2 kinase domain (DH1) (10 μM compound, 10 μM ATP) was < 50%; on JAK2 kinase domain (JH1) (10 μM compound, 10 μM ATP), < 50%. In addition, the Kd in assay [1] was in the range of 1 to 10 nM.
Take `CNc1cc(Nc2cc(F)cn(C3CCN(C)CC3)c2=O)nc2c(C(=O)N[C@H]3C[C@H]3F)cnn12` [I-626]: the inhibition at 10 µM was < 50% at Tyk2 kinase domain (DH1) (compound at 10 μM, ATP 10 μM) and < 50% on JAK2 kinase domain (JH1) (compound at 10 μM, ATP 10 μM). In addition, the Kd in assay [1] was < 0.2 nM.
As for `CNc1cc(Nc2cccn([C@@H]3CCCOC3)c2=O)nc2c(C(=O)N[C@H]3COC[C@H]3O)cnn12` [I-754], the inhibition at 10 µM was < 50% on Tyk2 kinase domain (DH1) (compound at 10 μM, ATP 10 μM) and < 50% on JAK2 kinase domain (JH1) (compound at 10 μM, ATP 10 μM). Further, the Kd in assay [1] is < 0.2 nM.
As for `CNc1cc(Nc2cccn(-c3cc(C)on3)c2=O)nc2c(C(=O)NC3COC3)cnn12` [I-104], the inhibition at 10 µM on Tyk2 kinase domain (DH1) (compound at 10 μM, ATP 10 μM) is < 50%; on JAK2 kinase domain (JH1) (compound at 10 μM, ATP 10 μM), < 50%. The compound further displayed a Kd in assay [1] of 1 to 10 nM.
Regarding `CNc1cc(Nc2cccn([C@@H]3CCC[C@@H]3OC)c2=O)nc2c(C(=O)N[C@@H]3C[C@@H]3F)cnn12` [I-537], the “Tyk2 JH1% Inhibition @ 10 μM” value at Tyk2 kinase domain (DH1) (compound at 10 μM, ATP 10 μM) is “A (percent inhibition at 10 μM lower than 50)”. The “JAK2 JH1% Inhibition @ 10 μM” value on JAK2 kinase domain (JH1) (compound at 10 μM, ATP 10 μM) is recorded as “A (percent inhibition at 10 μM lower than 50)”. This compound also showed a Kd in assay [1] of 1 to 10 nM.
Regarding `CNc1cc(Nc2cccnc2OC2CCCCC2)nc2c(C(=O)N[C@H]3C[C@H]3F)cnn12` [I-227], the inhibition at 10 µM is < 50% at Tyk2 kinase domain (DH1) (compound at 10 μM, ATP 10 μM) and < 50% at JAK2 kinase domain (JH1) (compound at 10 μM, ATP 10 μM). The compound also had a Kd in assay [1] of 0.2 to 1 nM.
For `CNc1cc(-n2cc(N3CCCC3)c3ncccc32)nc2c(C(=O)NC3CC3)cnn12` [I-552], the inhibition at 10 µM at Tyk2 kinase domain (DH1) (compound at 10 μM, ATP 10 μM) is < 50%; on JAK2 kinase domain (JH1) (compound at 10 μM, ATP 10 μM), < 50%. In assay [1], this compound registered a Kd of 1 to 10 nM.
`CNc1cc(Nc2cccn(-c3ccc(F)cn3)c2=O)nc2c(C(N)=O)cnn12` [I-48]: the inhibition at 10 µM on Tyk2 kinase domain (DH1) (compound at 10 μM, ATP 10 μM) is < 50%; on JAK2 kinase domain (JH1) (compound at 10 μM, ATP 10 μM), < 50%. This compound also displayed a Kd in assay [1] of 0.2 to 1 nM.
As for `CNc1cc(Nc2cccnc2OC2CCCCC2)nc2c(C(=O)NC3CCC3)cnn12` [I-226], the inhibition at 10 µM is < 50% on Tyk2 kinase domain (DH1) (compound at 10 μM, ATP 10 μM) and < 50% on JAK2 kinase domain (JH1) (compound at 10 μM, ATP 10 μM). Also, the Kd in assay [1] was 1 to 10 nM.
As to `NC(=O)c1cnn2c(N)cc(Nc3cccnc3OC(F)(F)F)nc12` [I-102, 7-amino-5-((2-(trifluoromethoxy)pyridin-3-yl)amino)pyrazolo[1,5-a]-pyrimidine-3-carboxamide], the inhibition at 10 µM on Tyk2 kinase domain (DH1) (compound at 10 μM, ATP 10 μM) is 70 to 90%; at JAK2 kinase domain (JH1) (compound at 10 μM, ATP 10 μM) it was > 90%. The compound further came in with a Kd in assay [1] of 0.2 to 1 nM.
With `CNc1cc(Nc2cccn([C@@H]3CCN(C)C[C@H]3F)c2=O)nc2c(C(=O)NC3CC3)cnn12` [I-686], the inhibition at 10 µM was < 50% at Tyk2 kinase domain (DH1) (compound at 10 μM, ATP 10 μM) and < 50% on JAK2 kinase domain (JH1) (compound at 10 μM, ATP 10 μM). Besides, the Kd in assay [1] was 0.2 to 1 nM.
Turning to `CNc1cc(Nc2cccnc2OC2CC2)nc2c(C(=O)N[C@@H]3CCC[C@H]3O)cnn12` (stereo in doubt) [I-424, 5-((2-cyclopropoxypyridin-3-yl)amino)-N-(2-hydroxycyclopentyl)-7-(methylamino)pyrazolo[1,5-a]pyrimidine-3-carboxamide], the inhibition at 10 µM on Tyk2 kinase domain (DH1) (compound at 10 μM, ATP 10 μM) was < 50%; on JAK2 kinase domain (JH1) (compound at 10 μM, ATP 10 μM), < 50%. Also, the Kd in assay [1] is < 0.2 nM.
As to `CNc1cc(Nc2cccn(-c3ccccc3F)c2=O)nc2c(C(=O)NC[C@@H](C)CO)cnn12` [I-1076], the inhibition at 10 µM on Tyk2 kinase domain (DH1) (10 μM compound, 10 μM ATP) was < 50%; at JAK2 kinase domain (JH1) (10 μM compound, 10 μM ATP) it was < 50%. The Kd in assay [1] was < 0.2 nM.
On to `CNc1cc(-c2nn(CCN3CCN(C)CC3)c3ncccc23)nc2c(C(=O)N[C@H]3C[C@H]3F)cnn12` [I-480], for which the inhibition at 10 µM on Tyk2 kinase domain (DH1) (compound at 10 μM, ATP 10 μM) was < 50%; at JAK2 kinase domain (JH1) (compound at 10 μM, ATP 10 μM), < 50%. The Kd in assay [1] is 0.2 to 1 nM.
Take `CNc1cc(Nc2cccn(C3CC4(COC4)C3)c2=O)nc2c(C(=O)NC3CC3)cnn12` [I-550]: the inhibition at 10 µM at Tyk2 kinase domain (DH1) (compound at 10 μM, ATP 10 μM) is < 50%; on JAK2 kinase domain (JH1) (compound at 10 μM, ATP 10 μM) it was < 50%. The Kd in assay [1] was < 0.2 nM.
For `CNc1cc(Nc2cccn(-c3ccc(OC)cn3)c2=O)nc2c(C(=O)NC3CC3)cnn12` [I-264], the inhibition at 10 µM at Tyk2 kinase domain (DH1) (compound at 10 μM, ATP 10 μM) was < 50%; on JAK2 kinase domain (JH1) (compound at 10 μM, ATP 10 μM), < 50%. Also, the Kd in assay [1] fell in the range of 0.2 to 1 nM.
Turning to `CNc1cc(Nc2cccn(C3CCOCC3)c2=O)nc2c(C(=O)N[C@H]3CC[C@H]3O)cnn12` [I-527], the inhibition at 10 µM on Tyk2 kinase domain (DH1) (compound at 10 μM, ATP 10 μM) was < 50%; at JAK2 kinase domain (JH1) (compound at 10 μM, ATP 10 μM) it was < 50%. Further, the Kd in assay [1] lay in the range of 0.2 to 1 nM.
For `CNc1cc(Nc2cccn([C@@H]3CCCOC3)c2=O)nc2c(C(=O)NCC3(CO)CC3)cnn12` [I-700], the inhibition at 10 µM on Tyk2 kinase domain (DH1) (compound at 10 μM, ATP 10 μM) is < 50%; at JAK2 kinase domain (JH1) (compound at 10 μM, ATP 10 μM), < 50%. The same compound returned a Kd in assay [1] of 0.2 to 1 nM.
Turning to `CNc1cc(Nc2cccn([C@H]3CC[C@@]4(CCCO4)CC3)c2=O)nc2c(C(=O)NC3CC3)cnn12` [I-910], the inhibition at 10 µM at Tyk2 kinase domain (DH1) (10 μM compound, 10 μM ATP) was < 50%; on JAK2 kinase domain (JH1) (10 μM compound, 10 μM ATP), < 50%. In addition, the Kd in assay [1] was < 0.2 nM.
In the case of `CNc1cc(Nc2cccc(C3CCCCO3)n2)nc2c(C(=O)NC3CC3)cnn12` (stereo not drawn) [I-432, N-cyclopropyl-7-(methylamino)-5-((6-(tetrahydro-2H-pyran-2-yl)pyridin-2-yl)amino)pyrazolo[1,5-a]pyrimidine-3-carboxamide], the inhibition at 10 µM on Tyk2 kinase domain (DH1) (compound at 10 μM, ATP 10 μM) was < 50%; on JAK2 kinase domain (JH1) (compound at 10 μM, ATP 10 μM), < 50%. For the same compound, in assay [1], the dissociation constant Kd is < 0.2 nM.
For `CNc1cc(Nc2cccn([C@H]3CC[C@@H](OC)CC3)c2=O)nc2c(C(=O)NC3CCC3)cnn12` [I-358], the inhibition at 10 µM on Tyk2 kinase domain (DH1) (compound at 10 μM, ATP 10 μM) is < 50%; at JAK2 kinase domain (JH1) (compound at 10 μM, ATP 10 μM), < 50%. The Kd in assay [1] is < 0.2 nM.
For the compound `CNc1cc(-c2cn(CCN3CCN(C)CC3)c3ncccc23)nc2c(C(=O)NC3CC3)cnn12` [I-616], the inhibition at 10 µM at Tyk2 kinase domain (DH1) (compound at 10 μM, ATP 10 μM) was < 50%; at JAK2 kinase domain (JH1) (compound at 10 μM, ATP 10 μM), < 50%. The Kd in assay [1] is < 0.2 nM.
